Laboratory results as given in patent US20190022225A1, “PROTOCOL FOR INCREASING LIFE EXPECTANCY IN A TEST SUBJECT” (Mayo Foundation for Medical Education and Research, priority 2015, published 2019).

How the values were obtained:
[1] = tested on: 3MR mice with bleomycin induced lung injury; test: Bleomycin induced lung injury model; type: in vivo, mouse; conditions: for lung compliance (static and dynamic) / lung elastance: 21 days post-bleomycin, Nutlin-3A data not statistically significant
Protocol: One animal model study assessed the effect of clearance of senescence cells in the transgenic mouse strain 3MR that has bleomycin induced lung injury. […] Control mice were administered saline. The day following bleomycin treatment, ganciclovir (GCV) (25 mg/kg in PBS) was administered. 3MR mice were treated via intraperitoneal injection with ganciclovir for 5 consecutive days, followed by 5 days of rest, followed by a second treatment cycle of 5 consecutive days. Untreated mice received an equal volume of vehicle. At 7, 14, and 21 days post-bleomycin treatment, lung function was assessed by monitoring oxygen saturation using the MouseSTAT PhysioSuite pulse oximeter (Kent Scientific). Animals were anesthetized with isoflurane (1.5%) and a toe clip was applied. Mice were monitored for 30 seconds and the average peripheral capillary oxygen saturation (SpO2) measurement over this duration was calculated. […] At 21 days post-bleomycin treatment, airway hyper-reactivity (AHR) of mice was examined. AHR of mice was measured by methacholine challenge while other parameters of lung function (airway mechanics, lung volume and lung compliance) were determined using a SCIREQ flexiVent ventilator. While under ketamine/xylazine anesthesia and subjected to cannulation of the trachea via a tracheostomy (19Fr blunt Luer cannula), airway resistance (elastance) and compliance of mice were assessed at baseline and in response to increasing concentrations of methacholine (0 to 50 mg/ml in PBS) delivered via nebulization (AeroNeb) as described in Aravamudan et al. (Am. J. Physiol. Lung Cell. Mol. Physiol. (2012) 303:L669-L6810). Animals were maintained at 37° C., and while under muscle paralysis (pancuronium); airway function was measured by using the FlexiVent ventilator and lung mechanics system (SCIREQ, Montreal, Quebec, Canada), which was housed on Stabile 8. […] As shown in FIGS. 60B-C, bleomycin administration reduced static compliance and (dynamic) compliance in vehicle treated mice. […] Mice were euthanized by i.p injection of pentobarbital. Bronchoalveolar lavage (BAL) fluids and lungs is obtained and analyzed. Hydroxyproline content of lungs is measured as described in Christensen et al. (1999, Am. J. Pathol. 155:1773-1779), and quantitative histopathology is performed. RNA is extracted from lung tissue to measure senescence cell markers by qRT-PCR in treated and control mice.

[2] = tested on: senescent foreskin fibroblasts (HCA2 and BJ), lung fibroblasts (IMR90); test: Cell count survival assay of Nutlin-3a on irradiation-induced senescent fibroblasts; type: cell-based, human; conditions: 10 Gy irradiated HCA2, BJ, Nutlin-3a 0, 2.5, 10 μM for 9 days
Protocol: Foreskin fibroblast cell lines HCA2 and BJ, lung fibroblast cell line IMR90, and mouse embryonic fibroblasts were seeded in six-well plates and induced to senesce with 10 Gy of ionizing radiation (IR) or a 24 hr treatment with doxorubicin (Doxo). Senescent phenotype was allowed to develop for at least 7 days, at which point a cell count was made to determine the baseline number of cells. Nutlin-3a treatment was then initiated for a period of at least 9 days. Media alone or media with drug as appropriate was refreshed at least every three days. At the end of the assay time period, cells are counted. Each condition was seeded in three plate wells and counted independently. Initial cell count serves as a control to determine the induction of senescence, as compared to the last day count without nutlin treatment. Initial non-senescent cell count serves as a proxy to determine Nutlin-3a toxicity.
Foreskin fibroblast cell lines HCA2 and BJ, lung fibroblast cell line IMR90, and mouse embryonic fibroblasts were exposed to 10 Gy of ionizing radiation (IR) to induce senescence. […] Percent survival was calculated as [cell count on day 9 of Nutlin-3a treatment/initial cell count on first day of Nutlin-3a treatment].

[3] = tested on: non-senescent foreskin fibroblasts (HCA2), lung fibroblasts (IMR90), mouse embryonic fibroblasts (MEF); test: Nutlin-3a toxicity, cell counts of non-senescent fibroblasts; type: cell-based, human; mouse; conditions: 0, 2.5, 10 μM, 9 days
Protocol: Non-senescent foreskin fibroblasts (HCA2), lung fibroblasts (IMR90), and mouse embryonic fibroblasts (MEF) were treated with varying concentrations (0, 2.5 μM, and 10 μM) of Nutlin-3a for a period of 9 days to assess Nutlin-3a toxicity. Cell counts were taken at the start (NS start) and end of Nutlin-3a treatment. The difference between counts of cells not treated with Nutlin-3a on day 9 (NS 0) and cell counts determined at day zero (NS start) reflects the cell growth over the indicated time period. […] Decrease in apparent survival between NS 0 and NS 2.5 and between NS 0 and NS 10 reflects a decrease in cell growth. Without wishing to be bound by theory, Nutlin-3a may stabilize p53, leading to cell cycle growth arrest.

[4] = tested on: LDLR−/−/3MR double transgenic mice fed a HFD; test: Atherosclerosis model, LDLR-/-/3MR double transgenic mice on HFD, ganciclovir weeks 12-13 and 14-15; type: in vivo, mouse; conditions: 25 mg/kg ip; versus LDLR−/−/HFD controls
Protocol: The study illustrated in FIG. 43B assessed the extent to which […] based clearance of senescent cells from LDLR^−/− /3MR double transgenic mice improves pre-existing atherogenic disease. LDLR^−/− MR double transgenic mice (10 weeks) and LDLR^−/− single transgenic mice (10 weeks) are fed a high fat diet beginning at Week 0 until Week 12. Gancyclovir is administered to both groups of mice (25 mg/kg intraperitoneally) from weeks 12-13 and weeks 14-15. At week 16, the level of plaque and the number of senescent cells in the plaques are determined.

[5] = tested on: paclitaxel treated p16-3MR mice; test: Chemotherapy related side effects: voluntary exercise (wheel counts) after paclitaxel in p16-3MR mice; type: in vivo, mouse; conditions: ABT-263 100 mg/kg ip daily 7 days; ganciclovir 25 mg/kg ip daily 3 days
Protocol: ABT-263 (100 mg/kg) was administered intraperitoneally daily for seven days after paclitaxel administration. Two days after the last dose of ABT-263, all groups of animals were housed in metabolic cages (promethion, sable systems international, Las Vegas, Nev.) to monitor voluntary exercise as determined by wheel counts. Data were collected and analyzed two days later. Clearance of senescent cells by ABT-263 and ganciclovir restored approximately 70% of wheel count reduction caused by chemotherapy treatment.

SMILES | lung compliance (static and dynamic) [1] | lung elastance [1] | cell survival of senescent fibroblasts (percent survival) [2] | toxicity to non-senescent fibroblasts (percent growth) [3] | % of the aorta covered with plaque [4] | plaque cross-sectional area [4] | peripheral capillary oxygen saturation (SpO2) ([1]; approached normal levels at 21 days post bleomycin) | restoration of wheel count reduction caused by chemotherapy treatment [5]
COc1ccc(C2=N[C@@H](c3ccc(Cl)cc3)[C@@H](c3ccc(Cl)cc3)N2C(=O)N2CCNC(=O)C2)c(OC(C)C)c1 [Nutlin-3a] | increased lung compliance | reduced lung elastance | reduced cell survival | reduces proliferation but is non-toxic |  |  |  | 
Nc1nc(O)c2ncn(COC(CO)CO)c2n1 [ganciclovir] | improved compliance values significantly | reduced lung elastance |  |  | reduces the % of the aorta covered with plaque | reduced the plaque cross-sectional area | higher SpO2 levels | approximately 70%
